Measurements from patent US11021493B2, “1,4-thiazine dioxide and 1,2,4-thiadiazine dioxide derivatives as beta-secretase inhibitors and methods of use” (AMGEN INC., priority 2016, dated 2021).

How the values were obtained:
[1] = target: Cathepsin D (CatD) (Homo sapiens (Human), UniProt P07339); assay: In vitro enzymatic Cathepsin D (CatD) FRET assay; format: biochemical; details: read-out: Cat D Enzyme IC50
[2] = target: human recombinant BACE2 (Homo sapiens (Human), UniProt Q9Y5Z0); assay: In vitro enzymatic BACE2 FRET assay; format: biochemical; details: read-out: BACE2 Enzyme IC50
[3] = target: T1, BACE1 (Homo sapiens (Human), UniProt P56817); assay: In vitro BACE1 cell-based assay (Aβ40 in conditioned medium of cells stably expressing APP, HTRF); details: Aβ40 in conditioned media after 24 h incubation
Target sequence in this assay (P56817 46-501, species assumed): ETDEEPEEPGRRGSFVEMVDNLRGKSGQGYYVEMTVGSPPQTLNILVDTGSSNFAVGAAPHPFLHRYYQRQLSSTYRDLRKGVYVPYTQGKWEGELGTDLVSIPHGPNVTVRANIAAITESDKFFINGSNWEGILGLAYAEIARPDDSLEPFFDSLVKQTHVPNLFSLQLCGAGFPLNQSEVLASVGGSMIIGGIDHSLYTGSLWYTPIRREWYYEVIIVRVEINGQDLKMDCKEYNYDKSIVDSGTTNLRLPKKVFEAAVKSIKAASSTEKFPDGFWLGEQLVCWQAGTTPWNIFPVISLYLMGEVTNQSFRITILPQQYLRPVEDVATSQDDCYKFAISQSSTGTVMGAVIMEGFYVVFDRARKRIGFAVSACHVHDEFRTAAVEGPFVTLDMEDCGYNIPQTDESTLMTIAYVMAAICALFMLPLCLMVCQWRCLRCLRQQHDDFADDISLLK

[4] = target: T1, BACE1; assay: In vitro enzymatic BACE1 FRET assay; format: biochemical; details: read-out: BACE1 Enzyme IC50
Target sequence in this assay (P56817 46-501): as the sequence (P56817 46-501, species assumed) above

human recombinant BACE2, sequence (Q9Y5Z0 63-518): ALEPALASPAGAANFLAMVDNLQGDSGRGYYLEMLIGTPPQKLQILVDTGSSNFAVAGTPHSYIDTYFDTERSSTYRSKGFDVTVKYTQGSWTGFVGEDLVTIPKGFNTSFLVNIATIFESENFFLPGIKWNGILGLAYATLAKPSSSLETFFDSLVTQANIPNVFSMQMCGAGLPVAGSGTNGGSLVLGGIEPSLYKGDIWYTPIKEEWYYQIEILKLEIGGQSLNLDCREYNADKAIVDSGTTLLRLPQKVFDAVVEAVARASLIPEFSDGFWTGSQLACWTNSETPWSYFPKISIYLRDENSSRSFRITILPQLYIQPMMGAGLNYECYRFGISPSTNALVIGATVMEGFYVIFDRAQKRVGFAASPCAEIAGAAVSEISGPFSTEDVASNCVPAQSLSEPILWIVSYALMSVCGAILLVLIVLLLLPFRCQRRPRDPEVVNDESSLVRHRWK
Cathepsin D (CatD), sequence (P07339 65-412, species assumed): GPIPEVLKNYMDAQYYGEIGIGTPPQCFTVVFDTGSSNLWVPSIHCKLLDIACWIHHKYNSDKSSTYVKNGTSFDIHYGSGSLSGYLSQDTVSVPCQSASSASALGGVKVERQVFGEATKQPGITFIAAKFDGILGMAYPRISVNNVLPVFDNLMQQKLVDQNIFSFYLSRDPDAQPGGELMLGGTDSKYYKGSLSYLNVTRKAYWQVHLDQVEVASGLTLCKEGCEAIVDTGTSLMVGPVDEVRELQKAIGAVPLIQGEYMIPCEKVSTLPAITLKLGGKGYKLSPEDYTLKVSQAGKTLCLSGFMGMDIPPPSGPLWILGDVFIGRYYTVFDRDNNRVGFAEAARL

Compound	IC50 [1]	IC50 [2]	IC50 [3]	IC50 [4]
CC1(C)C(N)=N[C@](CF)(c2cc(/C=C(\F)c3cnc(Cl)cn3)ccc2F)CS1(=O)=O [Example 189, (S,Z)-5-amino-3-(5-(2-(5-chloropyrazin-2-yl)-2-fluorovinyl)-2-fluorophenyl)-3-(fluoromethyl)-6,6-dimethyl-3,6-dihydro-2H-1,4-thiazine 1,1-dioxide]	61800 nM	59 nM	2220 nM	60 nM
C#CCOc1cnc(/C(F)=C/c2ccc(F)c([C@]3(CF)CS(=O)(=O)C(C)(C)C(N)=N3)c2)cn1 [Example 190, (S,Z)-5-amino-3-(2-fluoro-5-(2-fluoro-2-(5-(prop-2-yn-1-yloxy)pyrazin-2-yl)vinyl)phenyl)-3-(fluoromethyl)-6,6-dimethyl-3,6-dihydro-2H-1,4-thiazine 1,1-dioxide]	104000 nM	274 nM	74 nM	6 nM
CC1(C)C(N)=N[C@](C)(c2cc(/C=C(\F)c3cnc(Cl)cn3)ccc2F)C(F)(F)S1(=O)=O [Example 191, (R,Z)-5-amino-3-(5-(2-(5-chloropyrazin-2-yl)-2-fluorovinyl)-2-fluorophenyl)-2,2-difluoro-3,6,6-trimethyl-3,6-dihydro-2H-1,4-thiazine 1,1-dioxide]	62200 nM	52 nM	5090 nM	128 nM
CC1(C)C(N)=N[C@](C)(c2cc(/C=C(\F)c3ccc(C#N)cn3)cc(F)c2F)CS1(=O)=O [Example 192, (R,Z)-6-(2-(3-(5-amino-3,6,6-trimethyl-1,1-dioxido-3,6-dihydro-2H-1,4-thiazin-3-yl)-4,5-difluorophenyl)-1-fluorovinyl)nicotinonitrile]	76100 nM	46 nM	35 nM	12 nM
CC#CCOc1cnc(/C(F)=C/c2ccc(F)c([C@]3(CF)CS(=O)(=O)C(C)(C)C(N)=N3)c2)cn1 [Example 194, (S,Z)-5-amino-3-(5-(2-(5-(but-2-yn-1-yloxy)pyrazin-2-yl)-2-fluorovinyl)-2-fluorophenyl)-3-(fluoromethyl)-6,6-dimethyl-3,6-dihydro-2H-1,4-thiazine 1,1-dioxide]	49400 nM	181 nM	55 nM	7 nM
C#C[C@H](C)Oc1cnc(/C(F)=C/c2ccc(F)c([C@]3(CF)CS(=O)(=O)C(C)(C)C(N)=N3)c2)cn1 [Example 195, (S)-5-amino-3-(5-((Z)-2-(5-((S)-but-3-yn-2-yloxy)pyrazin-2-yl)-2-fluorovinyl)-2-fluorophenyl)-3-(fluoromethyl)-6,6-dimethyl-3,6-dihydro-2H-1,4-thiazine 1,1-dioxide]	64900 nM	523 nM	188 nM	11 nM
CN1C(N)=N[C@](C)(c2cc(/C=C(\F)c3ccc4c(c3)OCCO4)ccc2F)CS1(=O)=O [Example 196, (R,Z)-3-amino-5-(5-(2-(2,3-dihydrobenzo[b][1,4]dioxin-6-yl)-2-fluorovinyl)-2-fluorophenyl)-2,5-dimethyl-5,6-dihydro-2H-1,2,4-thiadiazine 1,1-dioxide]	56100 nM	157 nM	1080 nM	583 nM
CC1(C)C(N)=N[C@](C)(c2cc(/C=C(\F)c3ccc(C#N)cn3)cnc2F)CS1(=O)=O [Example 197, (R,Z)-6-(2-(5-(5-amino-3,6,6-trimethyl-1,1-dioxido-3,6-dihydro-2H-1,4-thiazin-3-yl)-6-fluoropyridin-3-yl)-1-fluorovinyl)nicotinonitrile]	81300 nM	87 nM	52 nM	33 nM
CC1(C)C(N)=N[C@](C)(c2cc(/C=C(\F)c3cnc(Cl)cn3)cnc2F)CS1(=O)=O [Example 203, (R,Z)-5-amino-3-(5-(2-(5-chloropyrazin-2-yl)-2-fluorovinyl)-2-fluoropyridin-3-yl)-3,6,6-trimethyl-3,6-dihydro-2H-1,4-thiazine 1,1-dioxide]	85400 nM	56 nM	196 nM	125 nM
CC1(C)C(N)=N[C@](C)(c2cc(/C=C(\F)c3cnc(OCc4ccccc4)cn3)cnc2F)CS1(=O)=O [Example 209, (R,Z)-5-amino-3-(5-(2-(5-(benzyloxy)pyrazin-2-yl)-2-fluorovinyl)-2-fluoropyridin-3-yl)-3,6,6-trimethyl-3,6-dihydro-2H-1,4-thiazine 1,1-dioxide]	46500 nM	311 nM	2520 nM	124 nM
CC1(C)C(N)=N[C@](C)(c2cc(/C=C(\F)c3cnc(OCc4ccncc4)cn3)ccc2F)CS1(=O)=O [Example 210, (R,Z)-5-amino-3-(2-fluoro-5-(2-fluoro-2-(5-(pyridin-4-ylmethoxy)pyrazin-2-yl)vinyl)phenyl)-3,6,6-trimethyl-3,6-dihydro-2H-1,4-thiazine 1,1-dioxide]	467000 nM	476 nM	2230 nM	1720 nM
CC1(C)C(N)=N[C@](C)(c2cc(/C=C(\F)c3cnc(Oc4ccccc4)cn3)ccc2F)CS1(=O)=O [Example 211, (R,Z)-5-amino-3-(2-fluoro-5-(2-fluoro-2-(5-phenoxypyrazin-2-yl)vinyl)phenyl)-3,6,6-trimethyl-3,6-dihydro-2H-1,4-thiazine 1,1-dioxide]	59500 nM	333 nM	1820 nM	349 nM
C[C@@H](CO)Oc1cnc(/C(F)=C/c2ccc(F)c([C@]3(C)CS(=O)(=O)C(C)(C)C(N)=N3)c2)cn1 [Example 218, (R)-5-amino-3-(2-fluoro-5-((Z)-2-fluoro-2-(5-(((S)-1-hydroxypropan-2-yl)oxy)pyrazin-2-yl)vinyl)phenyl)-3,6,6-trimethyl-3,6-dihydro-2H-1,4-thiazine 1,1-dioxide]	195000 nM	285 nM	529 nM	180 nM
C[C@H](O)COc1cnc(/C(F)=C/c2ccc(F)c([C@]3(C)CS(=O)(=O)C(C)(C)C(N)=N3)c2)cn1 [Example 219, (R)-5-amino-3-(2-fluoro-5-((Z)-2-fluoro-2-(5-((S)-2-hydroxypropoxy)pyrazin-2-yl)vinyl)phenyl)-3,6,6-trimethyl-3,6-dihydro-2H-1,4-thiazine 1,1-dioxide]	208000 nM	377 nM	142 nM	136 nM
CN1C(N)=N[C@](C)(c2cc(/C=C(\F)c3cc(F)c(C#N)cn3)ccc2F)CS1(=O)=O [Example 226, 6-((Z)-2-(3-((5R)-3-amino-2,5-dimethyl-1,1-dioxido-5,6-dihydro-2H-1,2,4-thiadiazin-5-yl)-4-fluorophenyl)-1-fluoroethenyl)-4-fluoro-3-pyridinecarbonitrile]	47000 nM	14 nM	341 nM	7 nM
COc1cc(/C(F)=C/c2ccc(F)c([C@]3(C)CS(=O)(=O)N(C)C(N)=N3)c2)ncc1Cl [Example 230, (R,Z)-3-amino-5-(5-(2-(5-chloro-4-methoxypyridin-2-yl)-2-fluorovinyl)-2-fluorophenyl)-2,5-dimethyl-5,6-dihydro-2H-1,2,4-thiadiazine 1,1-dioxide]	111000 nM	24 nM	656 nM	179 nM
CN1C(N)=N[C@](C)(c2cc(/C=C(\F)c3cc(C#N)c(Cl)cn3)ccc2F)CS1(=O)=O [Example 231, (R,Z)-2-(2-(3-(3-amino-2,5-dimethyl-1,1-dioxido-5,6-dihydro-2H-1,2,4-thiadiazin-5-yl)-4-fluorophenyl)-1-fluorovinyl)-5-chloroisonicotinonitrile]	> 4940 nM	94 nM	97 nM	84 nM
CN1C(N)=N[C@](C)(c2cc(/C=C(\F)c3cc(F)c(Cl)cn3)ccc2F)CS1(=O)=O [Example 232, (R,Z)-3-amino-5-(5-(2-(5-chloro-4-fluoropyridin-2-yl)-2-fluorovinyl)-2-fluorophenyl)-2,5-dimethyl-5,6-dihydro-2H-1,2,4-thiadiazine 1,1-dioxide]	68800 nM	2 nM	29 nM	7 nM
CN1C(N)=N[C@](C)(c2cc(/C=C(\F)c3ncc4c(n3)OCCO4)ccc2F)CS1(=O)=O [Example 234, (R,Z)-3-Amino-5-(5-(2-(6,7-dihydro-[1,4]dioxino[2,3-d]pyrimidin-2-yl)-2-fluorovinyl)-2-fluorophenyl)-2,5-dimethyl-5,6-dihydro-2H-1,2,4-thiadiazine 1,1-dioxide]	107000 nM	554 nM	99 nM	392 nM
C[C@@H]1COc2nc(/C(F)=C/c3ccc(F)c([C@]4(C)CS(=O)(=O)N(C)C(N)=N4)c3)ncc2O1 [Example 235, (R)-3-amino-5-(2-fluoro-5-((Z)-2-fluoro-2-((R)-6-methyl-6,7-dihydro-[1,4]dioxino[2,3-d]pyrimidin-2-yl)vinyl)phenyl)-2,5-dimethyl-5,6-dihydro-2H-1,2,4-thiadiazine 1,1-dioxide]	160000 nM	533 nM	128 nM	268 nM
C[C@H]1COc2cnc(/C(F)=C/c3ccc(F)c([C@]4(C)CS(=O)(=O)N(C)C(N)=N4)c3)nc2O1 [Example 236, (R)-3-amino-5-(2-fluoro-5-((Z)-2-fluoro-2-((S)-7-methyl-6,7-dihydro-[1,4]dioxino[2,3-d]pyrimidin-2-yl)vinyl)phenyl)-2,5-dimethyl-5,6-dihydro-2H-1,2,4-thiadiazine 1,1-dioxide]	55200 nM	2360 nM	410 nM	1120 nM
CN1C(N)=N[C@](C)(c2cc(/C=C(\F)c3cc4c(cn3)OCCC4)ccc2F)CS1(=O)=O [Example 239, (5R)-5-(5-((Z)-2-(3,4-dihydro-2H-pyrano[2,3-c]pyridin-6-yl)-2-fluoroethenyl)-2-fluorophenyl)-2,5-dimethyl-5,6-dihydro-2H-1,2,4-thiadiazin-3-amine 1,1-dioxide]	329000 nM	143 nM	1020 nM	530 nM
